Like-named read-outs stand apart in the source and are kept apart here.

Data set [1] relates to SARS-COV-2. Put plainly: SARS-COV-2 viral RNA synthesis in Vero cells (real time RT-PCR). The note with it: Severe acute respiratory syndrome coronavirus 2; Vero (MOI 0.01 24 h); read-out: EC50. The format is cell-based. On the technique in general: Quantitative PCR measures a nucleic acid by following its amplification.
The test system of data set [2] is SARS-COV-2. As to the kind of experiment: SARS-COV-2 viral RNA synthesis in HuH-7 cells (real time RT-PCR). Type of data set: cell-based.
Data set [3] has as its system SARS-COV-2. As to the kind of experiment: SARS-COV-2 viral RNA synthesis in Calu-3 cells (real time RT-PCR). The conditions noted are these: 1.0 μM. The format is cell-based.
Data set [4] in a line: Cytotoxicity assay (XTT) in Huh-7 cells. Type of data set: cell-based. The conditions noted are these: human. (In general: Tetrazolium dyes change colour on reduction, which living cells bring about.)
Experimental: In parallel, cytotoxicity assays were performed. Monolayers of 1.5×10^4 cells in 96-well plates were treated for 3 days with various concentrations (semi-log dilutions from 1,000 to 10 μM) of the antiviral drugs. Then, 5 mg/mL 2,3-bis-(2-methoxy-4-nitro-5-sulfophenyl)-2H-tetrazolium-5-carboxanilide (XTT) in DMEM was added to the cells in the presence of 0.01% of N-methyl dibenzopyrazine methyl sulfate (PMS).
Data set [5] can be described thus: Cytotoxicity assay (XTT) in Calu-3 cells. The format is cell-based, human. The conditions noted are these: human, Table 6. On the procedure: (§1) In parallel, cytotoxicity assays were performed.
The test system of data set [6] is Calu-3 cells. Put plainly: Cytotoxicity assay (XTT) in Calu-3 cells. Type of data set: cell-based, human. On the procedure: as §1
In data set [7] the test system is SARS-COV-2. Put plainly: SARS-COV-2 RNA loads in human primary monocytes. The format is cell-based. The conditions noted are these: 24 h. On the procedure: (§2) FIG. 5A, 5B and 5C. The compounds impair SARS-COV-2 RNA synthesis and SARS-COV-2-induced release of inflammatory mediators in human primary monocytes.
(§3) Human primary monocytes were obtained after 3 h of plastic adherence of peripheral blood mononuclear cells (PBMCs). PBMCs were isolated from healthy donors by density gradient centrifugation (Ficoll-Paque, GE Healthcare). PBMCs (2.0×10^6 cells) were plated onto 48-well plates (NalgeNunc) in RPMI-1640 without serum for 2 to 4 h. Non-adherent cells were removed, and the remaining monocytes were maintained in DMEM with 5% human serum (HS; Millipore) and penicillin/streptomycin. Monocytes were infected at MOI of 0.1. After 1 h inoculation period, cells were washed with phosphate saline buffer (PBS) to remove unbounded viruses and treated with 1 μM of the indicated compounds. After 24 h after infection, cell monolayers werc lysed total viral RNA was extracted, quantitative RT-PCR was performed, to detect the SARS-COV-2 and the housekeeping gene RNAse P.

Data set [8] concerns TNF-α and IL-6. Put plainly: TNF-α and IL-6 levels in supernatant of SARS-COV-2-infected human primary monocytes. The format is cell-based. The conditions noted are these: 24 h. The protocol: as §2, §3
In data set [9] the test system is SARS-COV-2. As to the kind of experiment: Combination with SARS-COV-2 nsp14 (exonuclease) inhibitors in Calu-3 cells, infectious virus titers. The format is cell-based. The note with it: for effect of co-treatment with raltegravir or dolutegravir (iEXO) on inhibition of SARS-COV-2 / effect on SARS-COV-2 replication: calu-3; for effect of co-treatment with raltegravir or dolutegravir (iEXO) on inhibition of SARS-COV-2: drug 10 μM, raltegravir or dolutegravir 5 μM; for EC99 mean / EC50 / EC90: Calu-3, alone or in combination as labelled; for effect on SARS-COV-2 replication: 5 μM.

The test system of data set [10] is SARS-COV-2. The note with it: for SI: CC50/EC50.
The subject of data set [11] is mouse bone marrow polychromatic erythrocytes. Put plainly: Micronucleus test in mouse bone marrow. Type of data set: in vivo. The note with it: mice; 25 mg/Kg i.p. The protocol: The ratio of polychromatic to normochromatic erythrocytes and the count of micronuclei were determined. This assay was conducted in compliance with the GLP principles.
The mark [12] stands for this setting: Calu-3, single moment treatment.
The mark [13] stands for this setting: Severe acute respiratory syndrome coronavirus 2, Calu-3, 72 h, Calu-3 (MOI 0.5 72 h), daily treatment.
The mark [14] stands for this setting: Severe acute respiratory syndrome coronavirus 2, Calu-3, 72 h, Calu-3 (MOI 0.5 72 h), single moment treatment.
Where [15] appears, read: Severe acute respiratory syndrome coronavirus 2, Calu-3, Table 6, Calu-3, daily treatment.
[16] abbreviates: Severe acute respiratory syndrome coronavirus 2, Calu-3, Table 6, Calu-3, single treatment.
[17] abbreviates: Table 6, Calu-3, daily treatment.
Setting [18] is: Table 6, Calu-3, single treatment.
The mark [19] stands for this setting: Severe acute respiratory syndrome coronavirus 2.

As usually defined, the EC50 is the concentration that produces a half-maximal response. The term CC50 denotes the concentration that lowers cell viability or growth by half. A word on the EC90: it is the concentration at which the effect reaches the 90% level. In the case of `OC[C@H]1O[C@@H](n2cnc3c(NCc4ccco4)ncnc32)[C@H](O)[C@@H]1O` [MB-801, kinetin riboside], the EC50 was found to be 8 µM in data set [1]; 0.1 µM in [2] (Severe acute respiratory syndrome coronavirus 2, Huh-7 (MOI 0.1 48 h), read-out: EC50); 0.02 µM in [10] (setting [13]); 0.18 µM in [10] (setting [14]); 0.02 µM in data set [10] (setting [15]); 0.18 µM in data set [10] (setting [16]). The SI in [2] (Huh-7, CC50/EC50) is 2290; in data set [10] (Calu-3, daily treatment), 26500 µM; in data set [10] (setting [12]), 3055; in data set [10] (setting [17]), 26,500; in data set [10] (setting [18]) it was 3.055. Besides, the “inhibition of SARS-COV-2 RNA synthesis” value in data set [3] is listed as “best profiles”. Besides, the CC50 at 3 days stood at 229 µM in [4]; 530 µM in data set [5] (Calu-3, daily treatment); 550 µM in data set [5] (Calu-3, single treatment). The CC50 in data set [6] (Calu-3, daily treatment) came out at 530 µM; in data set [6] (setting [12]), 550 µM. Further, in [7], the “viral RNA levels/cell” value is on record as “reduced”. In addition, the “SARS-CoV-2-induced enhancement of IL-6 levels in culture supernatant” value in data set [8] is on record as “reduced”. Further, in [8], the “SARS-CoV-2-induced enhancement of TNF-α levels in culture supernatant” value was “reduced”. Further, the “effect of co-treatment with raltegravir or dolutegravir (iEXO) on inhibition of SARS-COV-2” value (shortened to “effect … on inhibition of SARS-COV-2”) in [9] was “synergistic”. For the same molecule, the EC90 was determined as 3.7 µM in data set [10] (setting [13]), 7.2 µM in data set [10] (setting [14]), 3.7 µM in data set [10] (setting [15]) and 7.2 µM in [10] (setting [16]).

With `COC(=O)N[C@H](C(=O)N1CCC[C@H]1c1nc2cc([C@H]3CC[C@H](c4cc5nc([C@@H]6CCCN6C(=O)[C@@H](NC(=O)OC)[C@@H](C)OC)[nH]c5cc4F)N3c3cc(F)c(N4CCC(c5ccc(F)cc5)CC4)c(F)c3)c(F)cc2[nH]1)[C@@H](C)OC` [Pibrentasvir], the EC99 mean in data set [9] turned out to be 19 µM. Moreover, in data set [9] (setting [19]), the EC50 was found to be 0.7 µM and the EC90 turned out to be 4.2 µM.

Regarding `COC(=O)N[C@H](C(=O)N1CCC[C@H]1c1nc(-c2ccc(-c3ccc(-c4c[nH]c([C@@H]5CCCN5C(=O)[C@@H](NC(=O)OC)C(C)C)n4)cc3)cc2)c[nH]1)C(C)C` [Daclatasvir], in data set [9] (setting [19]), the EC50 was 0.7 µM and the EC90 turned out to be 3.8 µM.

With `Cc1nnc(C(=O)NC(C)(C)c2nc(C(=O)NCc3ccc(F)cc3)c(O)c(=O)n2C)o1` [RTG, raltegravir], the EC50 in [9] (setting [19]) turned out to be 4.8 µM. Also, the “effect on SARS-COV-2 replication” value in [9] was “marginal effects”.

On to `CC(C)C(=O)OC[C@H]1O[C@@H](n2ccc(NO)nc2=O)[C@H](O)[C@@H]1O` [MK-4482, N-4-hydroxycytidine-5′-isopropyl ester, reference compound], for which the CC50 at 3 days in data set [5] (Calu-3, daily treatment) came out at 58 µM; in [5] (Calu-3, single treatment) it was 58 µM. The molecule further returned a CC50 in data set [6] (Calu-3, daily treatment) of 58 µM. Moreover, the EC99 mean in data set [9] stood at 9 µM. Besides, the EC50 in [9] (setting [19]) was 0.8 µM; in data set [10] (setting [13]), 0.02 µM; in data set [10] (setting [15]), 0.02 µM; in data set [10] (setting [16]), 0.72 µM. For the same molecule, the EC90 in data set [9] (setting [19]) was 7 µM; in data set [10] (setting [13]), 8.6 µM; in [10] (setting [15]), 8.6 µM; in [10] (setting [16]) it was 3.4 µM. In addition, in data set [10] (Calu-3), the “efficiency impaired due to daily treatment” value is listed as 2 times. Moreover, the SI in [10] (Calu-3, daily treatment) was 2900 µM; in data set [10] (setting [17]), 2,900; in [10] (setting [18]) it was 80.

As to `CC(C)OC(=O)[C@H](C)N[P@](=O)(OC[C@H]1O[C@@H](n2ccc(=O)[nH]c2=O)[C@](C)(F)[C@@H]1O)Oc1ccccc1` [sofosbuvir], the “effect … on inhibition of SARS-COV-2” value in data set [9] is “enhanced efficiency”.

Take `O=P1(N(CCCl)CCCl)NCCCO1` (stereo not drawn) [Cyclophosphamide, reference compound]: the “MNPCE/4,000 PCE (Mean ± S.D.)” value in data set [11] is on record as 16.20 ± 6.03.

Regarding `C[C@@H]1CCO[C@H]2Cn3cc(C(=O)NCc4ccc(F)cc4F)c(=O)c(O)c3C(=O)N12` [DTG, dolutegravir], the EC50 in [9] (setting [19]) was found to be 5.3 µM. Also, the “effect on SARS-COV-2 replication” value in [9] is “marginal effects”.

Regarding `C[C@H](Cn1cnc2c(N)ncnc21)OCP(=O)(O)O` [Tenofovir], in data set [9], the EC50 was found to be 4.3 µM and the “effect … on inhibition of SARS-COV-2” value was “enhanced efficiency”.

These data come from patent publication US20240207302A1, “ANTIVIRAL COMPOUNDS, METHODS FOR THE MANUFACTURING OF COMPOUNDS, ANTIVIRAL PHARMACEUTICAL COMPOSITION, USE OF THE COMPOUNDS AND METHOD FOR THE ORAL TREATMENT OF CORONAVIRUS INFECTION AND RELATED DISEASES THEREOF” (priority 2021, published 2024).
